In article PMC2248166, “Quantitative peptide binding motifs for 19 human and mouse MHC class I molecules derived using positional scanning combinatorial peptide libraries” (Immunome Research, 2008):

Assays:
HLA A*3201 = HLA A*3201 (Homo sapiens, UniProt P04439, A270S/D101S/D185E/E176V/E277Q/F133L/G103R/G107R/G231S/H175R/I121M/I218V/I322F/K168Q/L105A/L300P/L318F/M331R/P208A/P217A/Q94H/R106L/R138Q/S129P/T104I/T323A/T345S/V100E/V321M/V358M); assay: biochemical; format: binding
H-2 K^k = H-2 K^k (Mus musculus, UniProt P04223); format: binding
HLA B*2705 = HLA B*2705 (Homo sapiens, UniProt P01889, D138H/D201E/E176V/E204Q/G107R/H137Y/K202T/N104T/N87E/Q56L/Q94K/R106L/R155S/R180L/S101D/S121N/S48T/Y140D/Y33H/Y91C); format: binding; conditions: positional scanning combinatorial 9-mer library; normalized to 1.0 for the best residue at each position
H-2 D^d = H-2 D^d (Mus musculus, UniProt P01900); format: binding
HLA A*6802 = HLA A*6802 (Homo sapiens, UniProt P04439, A269V/D140Y/D185E/E176V/E277Q/E87N/F33Y/G231S/I121R/I166T/I218V/L180W/L300P/L318F/N151K/P208A/P217A/Q86R/R138H/R169H/S129P/T345S/V36M); format: binding
HLA A*3001 = HLA A*3001 (Homo sapiens, UniProt P04439, D140H/D185E/E176W/F33S/G80R/H175R/K168Q/R138E/R41S); assay: biochemical; format: binding
HLA B*5801 = HLA B*5801 (Homo sapiens, UniProt P01889, A329T/C349S/D201E/D98Y/E176V/E187L/E204Q/E69T/G107R/I218V/I90N/K202T/L105A/L119I/N104I/N87E/Q89R/Q94S/R106L/R155S/R180L/R86G/S101N/S121R/S35A/S48A/T118I/V127L/V306I/V36M/Y140S/Y91M); format: binding
HLA B*3501 = HLA B*3501 (Homo sapiens, UniProt P01889, A329T/A93T/A95T/C349S/D201E/D98Y/E176V/E187L/E204Q/E69T/I218V/K202T/L119I/Q94N/R155S/R180L/S121R/S35A/S48A/T118I/V127L/V306I/V36M/Y140S/Y91F); format: binding
HLA A*0201 = HLA A*0201 (Homo sapiens, UniProt P04439, D140Y/D185E/D98H/E176V/E277Q/G131W/G231S/I119V/I121R/I166T/I218V/L300P/L318F/N151K/N90K/P208A/P217A/Q86G/Q94H/R138H/R169H/T345S); conditions: positional scanning combinatorial 9-mer library; normalized to 1.0 for the best residue at each position
HLA B*5802 = HLA B*5802 (Homo sapiens, UniProt P01889, A329T/C349S/D201E/D98Y/E176V/E187L/E204Q/E69T/G107R/I218V/I90N/K202T/L105A/N104I/N87E/Q89R/Q94S/R106L/R155S/R180L/R86G/S101N/S121W/S35A/S48A/V127L/V306I/V36M/Y140S/Y91M); format: binding
HLA B*1501 = HLA B*1501 (Homo sapiens, UniProt P01889, A329T/A93T/A95T/C349S/D201E/D98Y/E187L/E204Q/E69M/E70A/K202T/N87E/Q94N/R155S/R180W/S121R/S35A/S48A/V306I/V36M/Y140S/Y91S); assay: biochemical; format: binding
HLA B*5301 = HLA B*5301 (Homo sapiens, UniProt P01889, A329T/A93T/A95T/C349S/D201E/D98Y/E176V/E187L/E204Q/E69T/G107R/I218V/K202T/L105A/L119I/N104I/Q94N/R106L/R155S/R180L/S101N/S121R/S35A/S48A/T118I/V127L/V306I/V36M/Y140S/Y91F); format: binding
HLA B*0801 = HLA B*0801 (Homo sapiens, UniProt P01889, A93T/A95T/D138N/E176V/E187T/K202T/Q94N/R180D/S35A/V36M/Y33D/Y91F); assay: biochemical; format: binding
HLA B*0702 = HLA B*0702 (Homo sapiens, UniProt P01889); format: binding; conditions: positional scanning combinatorial 9-mer library; normalized to 1.0 for the best residue at each position
HLA B*5401 = HLA B*5401 (Homo sapiens, UniProt P01889, A329T/C349S/D138N/D201E/E176V/E187T/E204Q/E69G/I76V/K202T/L119W/R155S/R180L/S121T/S35A/S48A/V127L/V306I/V36M/Y140L); format: binding
H-2 D^b = H-2 D^b (Mus musculus, UniProt P01899); format: binding
HLA B*1503 = HLA B*1503 (Homo sapiens, UniProt P01889, A329T/A93T/A95T/C349S/D201E/D98Y/E187L/E204Q/K202T/N87E/Q94N/R155S/R180L/S121R/S35A/V306I/V36M/Y140S/Y91S); assay: biochemical; format: binding
HLA B*5101 = HLA B*5101 (Homo sapiens, UniProt P01889, A329T/A93T/A95T/C349S/D138N/D201E/D98Y/E187L/E204Q/E69T/G107R/I218V/K202T/L105A/L119W/N104I/Q94N/R106L/R155S/R180L/S101N/S121T/S35A/S48A/V306I/V36M/Y195H/Y91F); format: binding

Chain of H-2 D^d (P01900 whole entry, looked up): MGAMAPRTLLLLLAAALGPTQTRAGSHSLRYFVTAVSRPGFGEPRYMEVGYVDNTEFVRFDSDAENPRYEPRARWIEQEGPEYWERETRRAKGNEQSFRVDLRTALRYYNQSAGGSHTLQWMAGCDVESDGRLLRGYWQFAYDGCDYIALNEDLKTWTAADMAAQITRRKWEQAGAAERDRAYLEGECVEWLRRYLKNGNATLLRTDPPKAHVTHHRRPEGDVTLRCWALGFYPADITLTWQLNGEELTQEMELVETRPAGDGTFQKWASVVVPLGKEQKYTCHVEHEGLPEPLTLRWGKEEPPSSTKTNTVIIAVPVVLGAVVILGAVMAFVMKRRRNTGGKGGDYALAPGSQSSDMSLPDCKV
Chain of H-2 D^b (P01887 21-119): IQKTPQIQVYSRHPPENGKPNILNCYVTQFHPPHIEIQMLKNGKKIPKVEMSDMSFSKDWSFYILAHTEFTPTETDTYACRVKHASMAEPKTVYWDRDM
Chain of H-2 D^b (P01899 25-362): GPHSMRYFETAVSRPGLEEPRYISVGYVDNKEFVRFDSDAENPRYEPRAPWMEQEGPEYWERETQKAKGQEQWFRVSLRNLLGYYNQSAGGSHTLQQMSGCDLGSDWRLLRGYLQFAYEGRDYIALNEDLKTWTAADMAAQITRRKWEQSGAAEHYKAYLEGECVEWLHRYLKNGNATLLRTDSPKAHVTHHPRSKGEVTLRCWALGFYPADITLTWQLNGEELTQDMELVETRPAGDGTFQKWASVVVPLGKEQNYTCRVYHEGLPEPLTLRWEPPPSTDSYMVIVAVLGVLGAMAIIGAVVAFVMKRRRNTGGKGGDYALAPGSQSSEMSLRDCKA
Chain of H-2 K^k (P01887 21-119): as the sequence (P01887 21-119) above
Chain of H-2 K^k (P04223 22-369): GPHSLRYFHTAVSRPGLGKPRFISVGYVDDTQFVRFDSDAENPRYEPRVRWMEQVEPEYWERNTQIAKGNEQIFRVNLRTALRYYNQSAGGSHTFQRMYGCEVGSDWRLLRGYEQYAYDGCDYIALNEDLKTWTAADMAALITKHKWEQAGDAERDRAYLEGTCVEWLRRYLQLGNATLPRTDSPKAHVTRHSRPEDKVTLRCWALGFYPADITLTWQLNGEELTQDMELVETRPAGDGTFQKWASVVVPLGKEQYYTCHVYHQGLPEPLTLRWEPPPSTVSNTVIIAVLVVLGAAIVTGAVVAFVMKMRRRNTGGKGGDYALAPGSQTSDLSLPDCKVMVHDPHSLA

Sequence | Normalized average relative binding affinity (ARB), HLA A*3201 (HLA A*3201) | Normalized average relative binding affinity (ARB), H-2 Kk (H-2 K^k) | Normalized average relative binding affinity (ARB), HLA B*2705 (HLA B*2705) | Normalized average relative binding affinity (ARB), H-2 Dd (H-2 D^d) | Normalized average relative binding affinity (ARB), HLA A*6802 (HLA A*6802) | Normalized average relative binding affinity (ARB), HLA A*3001 (HLA A*3001) | Normalized average relative binding affinity (ARB), HLA B*5801 (HLA B*5801) | Normalized average relative binding affinity (ARB), HLA B*3501 (HLA B*3501) | Normalized average relative binding affinity (ARB), HLA A*0201 (HLA A*0201) | Normalized average relative binding affinity (ARB), HLA B*5802 (HLA B*5802) | Normalized average relative binding affinity (ARB), HLA B*1501 (HLA B*1501) | Normalized average relative binding affinity (ARB), HLA B*5301 (HLA B*5301) | Normalized average relative binding affinity (ARB), HLA B*0801 (HLA B*0801) | Normalized average relative binding affinity (ARB), HLA B*0702 (HLA B*0702) | Normalized average relative binding affinity (ARB), HLA B*5401 (HLA B*5401) | Normalized average relative binding affinity (ARB), H-2 Db (H-2 D^b) | Normalized average relative binding affinity (ARB), HLA B*1503 (HLA B*1503) | Normalized average relative binding affinity (ARB), HLA B*5101 (HLA B*5101)
XEXXXXXXX [3064.0024] | 0.031 | 1.0 | 0.0016 | 0.014 | 0.0068 | 0.025 | 0.0066 | 0.021 | 0.030 | 0.066 | 0.20 | 0.021 | 0.038 | 0.0028 | 0.0026 | 0.036 | 0.11 | 0.041
XFXXXXXXX [3064.0025] | 0.012 | 0.016 | 0.0016 | 0.074 | 0.017 | 0.30 | 0.097 | 0.012 | 0.0041 | 0.030 | 0.099 | 0.018 | 0.14 | 0.0028 | 0.00055 | 0.086 | 0.0062 | 0.086
XGXXXXXXX [3064.0026] | 0.025 | 0.0063 | 0.0016 | 1.0 | 0.014 | 0.22 | 0.14 | 0.063 | 0.0090 | 0.077 | 0.095 | 0.022 | 0.17 | 0.0028 | 0.011 | 0.42 | 0.042 | 0.16
XHXXXXXXX [3064.0027] | 0.047 | 0.0052 | 0.0065 | 0.061 | 0.0031 | 0.082 | 0.061 | 0.0078 | 0.0016 | 0.030 | 0.015 | 0.0036 | 0.028 | 0.0028 | 0.0014 | 0.099 | 0.16 | 0.029
XIXXXXXXX [3064.0028] | 0.35 | 0.0026 | 0.0022 | 0.018 | 0.15 | 0.18 | 0.046 | 0.032 | 0.057 | 0.11 | 0.42 | 0.11 | 0.24 | 0.033 | 0.0071 | 0.076 | 0.026 | 0.047
XKXXXXXXX [3064.0029] | 0.0079 | 0.0031 | 0.0076 | 0.093 | 0.011 | 0.026 | 0.014 | 0.0078 | 0.012 | 0.045 | 0.0091 | 0.0053 | 0.097 | 0.0028 | 0.0038 | 0.052 | 0.29 | 0.022
